Assay results taken from patent publication US4372964A, “Antiinflammatory 4,5-diaryl-1H-imidazole-2-methanols” (E. I. Du Pont de Nemours and Company, priority 1981, dated 1983).
Where two headings read alike, the source gives them in different places.

Legend:
[1] = tested on: adjuvant-induced arthritis in rats; assay: Established Adjuvant-Induced Arthritis in Rats; assay type: in vivo, Lewis (Wistar) male rats; conditions: Rattus norvegicus; for ED50: oral once daily 7 days (days 14-20), decrease from control paw volume, day 21; for inhibition in vivo at 9 mg/kg: Table 3, dose 9 mg/kg
[2] = tested on: phenylquinone writhing in mice; assay: Phenylquinone Writhing Test; assay type: in vivo, female white mice; conditions: Mus musculus, oral, observed from 30 minutes after dosing for 10 minutes
Protocol: Aqueous (0.10% phenyl-p-benzoquinone) phenylquinone was injected intraperitoneally at 24 minutes later using 0.20 ml per mouse.

[3] = 168 h, Table 3, dose 25 mg/kg, oral once daily 7 days, read-out: Adjuvant Arthritis, percent reduction in paw volume at the indicated dose
[4] = 168 h, Table 4, dose 25 mg/kg, oral once daily 7 days, read-out: Adjuvant Arthritis, percent reduction in paw volume at the indicated dose
[5] = 168 h, Table 3, dose 50 mg/kg, oral once daily 7 days, read-out: Adjuvant Arthritis, percent reduction in paw volume at the indicated dose
[6] = 168 h, oral once daily 7 days, read-out: Adjuvant Arthritis, percent reduction in paw volume at the indicated dose

SMILES | ED50 ([1]; Table 3, Formula I) | ED50 ([2]; Table 3, Formula I) | also measured
OC(c1nc(-c2ccc(F)cc2)c(-c2ccc(F)cc2)[nH]1)(C(F)(F)F)C(F)(F)F [Example 1, 4,5-Bis(4-fluorophenyl)-α,α-di(trifluoromethyl)-1H-imidazole-2-methanol] | 8 mg/kg | > 108 mg/kg | 
COc1ccc(-c2nc(C(O)(C(F)(F)F)C(F)(F)F)[nH]c2-c2ccc(OC)cc2)cc1 [Example 2, 4,5-Bis(4-methoxyphenyl)-α,α-di(trifluoromethyl)-1H-imidazole-2-methanol] | 5 mg/kg | 2.7 mg/kg | 
CC(O)(c1nc(-c2ccc(F)cc2)c(-c2ccc(F)cc2)[nH]1)C(F)(F)F (stereo not drawn) [Example 3, 4,5-Bis(4-fluorophenyl)-α-methyl-α-trifluoromethyl-1H-imidazole-2-methanol] | 1.8 mg/kg | 39 mg/kg | 
COc1ccc(-c2nc(C(O)(C(F)(F)F)C(F)(F)F)n(C)c2-c2ccc(OC)cc2)cc1 [Example 4, 4,5-Bis(4-methoxyphenyl)-1-methyl-α,α-(trifluoromethyl)-1H-imidazole-2-methanol] | 15 mg/kg | > 135 mg/kg | 
COc1ccc(-c2nc(C(OC(C)=O)(C(F)(F)F)C(F)(F)F)n(C)c2-c2ccc(OC)cc2)cc1 [Example 5, 4,5-Bis(4-methoxyphenyl)-1-methyl-α,α-di(trifluoromethyl)-1H-imidazole-2-methanol, Acetate] |  | > 108 mg/kg | inhibition in vivo at 25 mg/kg [1, 3]: 45%
CCOC(=O)OC(c1nc(-c2ccc(OC)cc2)c(-c2ccc(OC)cc2)n1C)(C(F)(F)F)C(F)(F)F [Example 6, 4,5-Bis(4-methoxyphenyl)-1-methyl-α,α-di(trifluoromethyl)-1H-imidazole-2-methanol, Ethylcarbonate] |  | > 108 mg/kg | inhibition in vivo at 45 mg/kg ([1]; 168 h, Table 3, dose 45 mg/kg, oral once daily 7 days, read-out: Adjuvant Arthritis, percent reduction in paw volume at the indicated dose): 17%
COc1ccc(-c2nc(C(OC)(C(F)(F)F)C(F)(F)F)[nH]c2-c2ccc(OC)cc2)cc1 [Example 7, 4,5-Bis(4-methoxyphenyl)-2-[1-methoxy-2,2,2-trifluoro-1-(trifluoromethyl)ethyl]-1H-imidazole] | 4.4 mg/kg | 32 mg/kg | 
O=C(c1nc(-c2ccc(F)cc2)c(-c2ccc(F)cc2)[nH]1)C(F)(F)F [Example 8, 1-[4,5-Bis(4-fluorophenyl)-1H-imidazol-2-yl]-2,2,2-trifluoro-1-ethanone] |  |  | inhibition in vivo at 25 mg/kg [1, 4]: 49%; ED50 ([2]; Table 4, Formula II): > 108 mg/kg
COc1ccc(-c2nc(C(=O)C(F)(F)F)[nH]c2-c2ccc(OC)cc2)cc1 [Example 9, 1-[4,5-Bis(4-methoxyphenyl)-1H-imidazol-2-yl]2,2,2-trifluoro-1-ethanone] |  |  | ED50 ([1]; Table 4, Formula II): 25 mg/kg; ED50 ([2]; Table 4, Formula II): > 108 mg/kg
COc1ccc(-c2nc(C(O)C(F)(F)F)[nH]c2-c2ccc(OC)cc2)cc1 (stereo not drawn) [Example 10, 4,5-Bis(4-methoxyphenyl)-α-(trifluoromethyl)-1H-imidazole-2-methanol] | 45 mg/kg | 1.9 mg/kg | 
CC(O)(c1nc(-c2ccc(F)cc2)c(-c2ccc(F)cc2)[nH]1)C(F)(F)C(F)(F)F (stereo not drawn) [Example 11, 4,5-Bis(4-Fluorophenyl)-α-methyl-α-/pentafluoroethyl-1H-imidazole-2-methanol] | 1.4 mg/kg | > 108 mg/kg | 
COc1ccc(-c2nc(C(O)(C(F)(F)F)C(F)(F)Cl)[nH]c2-c2ccc(OC)cc2)cc1 (stereo not drawn) [Example 12] | 6 mg/kg | 42 mg/kg | 
COc1ccc(-c2nc(C(O)(C(F)(F)Cl)C(F)(F)Cl)[nH]c2-c2ccc(OC)cc2)cc1 [Example 13] | 15 mg/kg | 135 mg/kg | 
OC(c1nc(-c2ccc(F)cc2)c(-c2cccs2)[nH]1)(C(F)(F)F)C(F)(F)F [Example 14] | 90 mg/kg | > 108 mg/kg | 
COc1ccc(-c2nc(C(O)(C(F)F)C(F)(F)F)[nH]c2-c2ccc(OC)cc2)cc1 (stereo not drawn) [Example 15, 4,5-bis(4-methoxyphenyl)-α-difluoromethyl-α-trifluoromethyl-1H-imidazole-2-methanol] | 3 mg/kg | 1.4 mg/kg | 
OC(c1nc(-c2ccc(F)cc2)c(-c2ccc(F)cc2)[nH]1)(C(F)F)C(F)(F)F (stereo not drawn) [Example 16, 4,5-bis(4-fluorophenyl)-α-difluoromethyl-α-trifluoromethyl-1H-imidazole-2-methanol] | 4.8 mg/kg | > 108 mg/kg | 
OC(c1nc(-c2ccccc2)c(-c2ccc(Cl)c(Cl)c2)[nH]1)(C(F)(F)F)C(F)(F)F [Example 17] |  |  | inhibition in vivo at 50 mg/kg [1, 5]: 21%
COc1ccc(-c2nc(C(C)(O)C(F)(F)F)[nH]c2-c2ccc(OC)cc2)cc1 (stereo not drawn) [Example 18, 4,5-bis(4-methoxyphenyl)-α-methyl-α-trifluoromethyl-1H-imidazole-2-methanol] | 5.4 mg/kg | 2.2 mg/kg | 
COc1ccc(-c2nc(C(O)C(F)(F)F)n(C)c2-c2ccc(OC)cc2)cc1 (stereo not drawn) [Example 19] |  | > 108 mg/kg | inhibition in vivo at 27 mg/kg ([1]; 168 h, Table 3, dose 27 mg/kg, oral once daily 7 days, read-out: Adjuvant Arthritis, percent reduction in paw volume at the indicated dose): 0%
OC(c1nc(-c2ccccc2)c(-c2ccccc2)[nH]1)(C(F)(F)F)C(F)(F)F [Example 20] | 27 mg/kg | 57 mg/kg | 
CSc1ccc(-c2[nH]c(C(O)(C(F)(F)F)C(F)(F)F)nc2-c2ccc(F)cc2)cc1 [Example 21] |  |  | inhibition in vivo at 15 mg/kg ([1]; 168 h, Table 3, dose 15 mg/kg, oral once daily 7 days, read-out: Adjuvant Arthritis, percent reduction in paw volume at the indicated dose): 61%

SMILES | ED50 ([1]; Table 3, Formula I) | ED50 ([2]; Table 3, Formula I) | also measured
OC(c1nc(-c2ccc(Cl)cc2)c(-c2ccc(Cl)cc2)[nH]1)(C(F)(F)F)C(F)(F)F [Example 22] |  | > 135 mg/kg | inhibition in vivo at 9 mg/kg [1, 6]: 37%
OC(c1nc(-c2ccc(F)cc2)c(-c2ccc(F)cc2)[nH]1)C(F)(F)C(F)(F)F (stereo not drawn) [Example 23] | 6.8 mg/kg | 24 mg/kg | 
CSc1ccc(-c2[nH]c(C(C)(O)C(F)(F)F)nc2-c2ccc(F)cc2)cc1 (stereo not drawn) [Example 24] |  | 102 mg/kg | inhibition in vivo at 9 mg/kg [1, 6]: 51%
CC(=O)OC(c1nc(-c2ccc(F)cc2)c(-c2ccc(F)cc2)[nH]1)(C(F)(F)F)C(F)(F)F [Example 25] | 13 mg/kg | > 108 mg/kg | 
Cn1c(C(C)(C)O)nc(-c2ccc(F)cc2)c1-c1ccc(F)cc1 [Example 26] |  | > 108 mg/kg | inhibition in vivo at 25 mg/kg [1, 3]: 47%
OC(c1nc(-c2ccc(F)cc2)c(-c2ccc(F)cc2)[nH]1)C(F)(F)F (stereo not drawn) [Example 27] | 14 mg/kg | > 108 mg/kg | 
CC(C)(O)c1nc(-c2ccc(F)cc2)c(-c2ccc(F)cc2)[nH]1 [Example 28] |  | > 108 mg/kg | inhibition in vivo at 50 mg/kg [1, 5]: 48%
COc1ccc(-c2nc(C(C)(O)C(F)(F)C(F)(F)F)[nH]c2-c2ccc(OC)cc2)cc1 (stereo not drawn) [Example 29, 4,5-bis(4-methoxyphenyl)-α-methyl-α-pentafluoroethyl-1H-imidazole-2-methanol] | 15 mg/kg | 3.5 mg/kg | 
COc1ccc(-c2nc(C(C)(C)O)[nH]c2-c2ccc(OC)cc2)cc1 [Example 30, 4,5-bis(4-methoxyphenyl)-α,α-dimethyl-1H-imidazole-2-methanol] | 6.4 mg/kg | 4.6 mg/kg | 
CCC(O)(c1nc(-c2ccc(F)cc2)c(-c2ccc(F)cc2)[nH]1)C(F)(F)F (stereo not drawn) [Example 31, 4,5-bis(4-fluorophenyl)-α-ethyl-α-trifluoromethyl-1H-imidazole-2-methanol] | 1.7 mg/kg | > 108 mg/kg | 
CCCC(O)(c1nc(-c2ccc(F)cc2)c(-c2ccc(F)cc2)[nH]1)C(F)(F)F (stereo not drawn) [Example 32] | 8.6 mg/kg | > 108 mg/kg | 
COc1ccc(-c2nc(C(C)(O)C3CC3)[nH]c2-c2ccc(OC)cc2)cc1 (stereo not drawn) [Example 33] |  | 5.6 mg/kg | inhibition in vivo at 9 mg/kg [1, 6]: 46%
CCC(C)(O)c1nc(-c2ccc(OC)cc2)c(-c2ccc(OC)cc2)[nH]1 (stereo not drawn) [Example 34] |  | 5.2 mg/kg | inhibition in vivo at 50 mg/kg [1, 5]: 82%
COc1ccc(-c2nc(C(C)O)[nH]c2-c2ccc(OC)cc2)cc1 (stereo not drawn) [Example 35] | 3.6 mg/kg | 26 mg/kg | 
COc1ccc(-c2nc(C(=O)C(F)(F)F)n(C)c2-c2ccc(OC)cc2)cc1 [Example 36, 1-[4,5-bis(4-methoxyphenyl)-1-methyl-1H-imidazol-2-yl]-2,2,2-trifluoro-1-ethanone] |  |  | inhibition in vivo at 25 mg/kg [1, 4]: 28%; ED50 ([2]; Table 4, Formula II): > 108 mg/kg
CSc1ccc(-c2[nH]c(C(=O)C(F)(F)F)nc2-c2ccc(F)cc2)cc1 [Example 37] |  |  | inhibition in vivo at 25 mg/kg [1, 4]: 24%; ED50 ([2]; Table 4, Formula II): > 108 mg/kg
COc1ccc(-c2nc(C(=O)C(F)(F)C(F)(F)F)[nH]c2-c2ccc(OC)cc2)cc1 [Example 38, 1-[4,5-bis(4-methoxyphenyl)-1H-imidazol-2-yl]-2,2,3,3,3-pentafluoro-1-propanone] |  |  | inhibition in vivo at 25 mg/kg [1, 4]: 62%; ED50 ([2]; Table 4, Formula II): 2.3 mg/kg
O=C(c1nc(-c2ccc(F)cc2)c(-c2ccc(F)cc2)[nH]1)C(F)(F)C(F)(F)F [Example 39, 1-[4,5-bis(4-fluorophenyl)-1H-imidazol-2-yl]-2,2,3,3,3-pentafluoro-1-propanone] |  |  | ED50 ([1]; Table 4, Formula II): 3 mg/kg
COc1ccc(-c2nc(C(C)=O)[nH]c2-c2ccc(OC)cc2)cc1 [Example 40] |  |  | inhibition in vivo at 50 mg/kg ([1]; 168 h, Table 4, dose 50 mg/kg, oral once daily 7 days, read-out: Adjuvant Arthritis, percent reduction in paw volume at the indicated dose): 56%; ED50 ([2]; Table 4, Formula II): > 135 mg/kg
CC(=O)c1nc(-c2ccc(F)cc2)c(-c2ccc(F)cc2)[nH]1 [Example 41] |  |  | inhibition in vivo at 25 mg/kg [1, 4]: 0%
